This note sets out measurements from patent US9688678B2, “Oxindole compounds carrying a nitrogen-bound spiro substituent and use thereof for treating vasopressin-related diseases” (AbbVie Deutschland GmbH & Co. KG, priority 2014, dated 2017).

Assay [1] deals with human vasopressin V1b receptor (Homo sapiens (Human), UniProt P47901). The experiment in a line: Vasopressin V1b receptor binding assay. The settings on record: membranes from CHO-K1 cells, displacement of 3H-AVP. The method, then: The test substances were dissolved in a concentration of 5 mM in 100% DMSO and further diluted to 5×10^−4 M to 5×10^−9 M. These serial DMSO predilutions were diluted 1:10 with assay buffer. The substance concentration was further diluted 1:5 in the assay mixture resulting in 2% DMSO in the mixture. All dilutions were performed in a Biomek NX automation workstation (Beckman)
The membrane pellet was again homogenized and centrifuged as described and subsequently taken up in 50 mM Tris-HCl, pH 7.4, homogenized and stored in aliquots frozen in liquid nitrogen at −190° C.
(§1) The incubation buffer was: 50 mM Tris, 10 mM MgCl2, 0.1% BSA, pH 7.4.
All determinations were carried out as duplicate determinations. […] The liquid scintillation measurement took place in a Microbeta TriLux 12 (Wallac). Analysis:
(§2) The binding parameters were calculated by nonlinear regression in SAS.
In general terms: In a radioligand displacement assay an active substance lowers the binding of a labelled ligand.

For assay [2], the target named is human vasopressin V1a receptor (Homo sapiens (Human), UniProt P37288). The experiment in a line: Vasopressin V1a receptor binding assay. Particulars: selectivity quotient, human V1a vs human V1b receptor. The method, then: The test substances were dissolved in a concentration of 5 mM M in DMSO. Further dilution of these DMSO solutions took place as described for V1b.
The membrane pellet was again homogenized in a High-Pressure-Homogenizer, Polytec 50K at 1500 PSI (Heinemann, Germany) and subsequently taken up in 50 mM Tris-HCl, pH 7.4, homogenized and stored in aliquots frozen in liquid nitrogen at −190° C.
as §1
Duplicate determinations were carried out.
After incubation (60 minutes at room temperature), the samples were processed as described for V1b.
as §2

For orientation: Ki means the dissociation constant of the complex between target and ligand, obtained from inhibition or displacement. Lower therefore signals higher affinity.

Chain of human vasopressin V1a receptor (P37288 whole entry): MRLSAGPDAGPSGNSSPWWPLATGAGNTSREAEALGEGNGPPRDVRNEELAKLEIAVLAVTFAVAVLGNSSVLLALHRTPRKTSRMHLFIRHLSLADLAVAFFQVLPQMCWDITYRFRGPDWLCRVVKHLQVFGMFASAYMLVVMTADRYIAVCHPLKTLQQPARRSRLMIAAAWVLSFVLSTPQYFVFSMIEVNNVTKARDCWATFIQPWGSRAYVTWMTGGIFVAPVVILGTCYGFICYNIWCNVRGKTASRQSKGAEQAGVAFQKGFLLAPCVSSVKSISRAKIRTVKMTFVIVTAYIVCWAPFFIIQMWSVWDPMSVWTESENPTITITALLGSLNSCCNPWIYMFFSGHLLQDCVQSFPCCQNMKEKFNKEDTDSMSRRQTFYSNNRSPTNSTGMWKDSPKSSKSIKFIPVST
Chain of human vasopressin V1b receptor (P47901 whole entry): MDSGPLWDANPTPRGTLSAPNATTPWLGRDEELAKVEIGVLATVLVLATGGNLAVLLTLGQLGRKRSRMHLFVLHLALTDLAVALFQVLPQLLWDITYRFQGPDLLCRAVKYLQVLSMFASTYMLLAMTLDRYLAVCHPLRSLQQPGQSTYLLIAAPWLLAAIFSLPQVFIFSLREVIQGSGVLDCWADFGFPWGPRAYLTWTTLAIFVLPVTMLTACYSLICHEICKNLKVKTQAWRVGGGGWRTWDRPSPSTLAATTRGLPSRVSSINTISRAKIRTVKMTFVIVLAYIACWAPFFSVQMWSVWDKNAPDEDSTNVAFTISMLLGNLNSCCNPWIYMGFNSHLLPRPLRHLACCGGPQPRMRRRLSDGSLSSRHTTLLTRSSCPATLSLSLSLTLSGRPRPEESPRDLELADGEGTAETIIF

On to `CCOc1ccc(OC)cc1C1(N2CC3(CN(C4CCN(C)CC4)C3)C2)C(=O)N(S(=O)(=O)c2ccc(OC)cn2)c2ccc(C#N)cc21` (racemic) [Example 1, (±)-3-(2-ethoxy-5-methoxy-phenyl)-1-[(5-methoxy-2-pyridyl)sulfonyl]-3-[2-(1-methyl-4-piperidyl)-2,6-diazaspiro[3.3]heptan-6-yl]-2-oxo-indoline-5-carbonitrile], for which, in assay [1], the Ki lay within 1 to 10 nM. Further, in assay [2], the “Ki(h-V1a)/ Ki(h-V1b)” value is listed as “+++ (>75)”.
In the case of `CCOc1ccc(OC)cc1C1(N2CC3(CN(C4CCN(C)CC4)C3)C2)C(=O)N(S(=O)(=O)c2ccc(OC)cc2OC)c2ccc(C#N)cc21` (racemic) [Example 2, (±)-1-(2,4-dimethoxyphenyl)sulfonyl-3-(2-ethoxy-5-methoxy-phenyl)-3-[2-(1-methyl-4-piperidyl)-2,6-diazaspiro[3.3]heptan-6-yl]-2-oxo-indoline-5-carbonitrile], the Ki in assay [1] was in the range of 10 to 100 nM. The “Ki(h-V1a)/ Ki(h-V1b)” value in assay [2] is on record as “++ (25-75)”.
In turn, `CCOc1ccc(OC)cc1C1(N2CC3(CN(C4CCN(C)CC4)C3)C2)C(=O)N(S(=O)(=O)c2cccc3cccnc23)c2ccc(C#N)cc21` (racemic) [Example 3, (±)-3-(2-ethoxy-5-methoxy-phenyl)-3-[2-(1-methyl-4-piperidyl)-2,6-diazaspiro[3.3]heptan-6-yl]-2-oxo-1-(8-quinolylsulfonyl)indoline-5-carbonitrile] had a Ki in assay [1] of 10 to 100 nM. Moreover, the “Ki(h-V1a)/ Ki(h-V1b)” value in assay [2] is “+++ (>75)”.
Compound `CCOc1ccc(OC)cc1C1(N2CC3(CN(C4CCN(C)CC4)C3)C2)C(=O)N(S(=O)(=O)c2ccc(OC)cc2)c2ccc(C#N)cc21` (racemic) [Example 5, (±)-3-(2-ethoxy-5-methoxy-phenyl)-1-(4-methoxyphenyl)sulfonyl-3-[2-(1-methyl-4-piperidyl)-2,6-diazaspiro[3.3]heptan-6-yl]-2-oxo-indoline-5-carbonitrile] yielded a Ki in assay [1] of 1 to 10 nM. For the same compound, in assay [2], the “Ki(h-V1a)/ Ki(h-V1b)” value was “+ (10-<25)”.
As for `CCOc1cc(F)ccc1C1(N2CC3(CN(C4CCN(C)CC4)C3)C2)C(=O)N(S(=O)(=O)c2ccc(OC)cn2)c2ccc(C#N)cc21` (racemic) [Example 7, (±)-3-(2-ethoxy-4-fluoro-phenyl)-1-[(5-methoxy-2-pyridyl)sulfonyl]-3-[2-(1-methyl-4-piperidyl)-2,6-diazaspiro[3.3]heptan-6-yl]-2-oxo-indoline-5-carbonitrile], the Ki in assay [1] is 1 to 10 nM. The “Ki(h-V1a)/ Ki(h-V1b)” value in assay [2] is “+++ (>75)”.
In the case of `CCOc1ccccc1C1(N2CC3(CN(C4CCN(C)CC4)C3)C2)C(=O)N(S(=O)(=O)c2ccc(OC)cn2)c2ccc(C#N)cc21` (racemic) [Example 8, (±)-3-(2-ethoxyphenyl)-1-[(5-methoxy-2-pyridyl)sulfonyl]-3-[2-(1-methyl-4-piperidyl)-2,6-diazaspiro[3.3]heptan-6-yl]-2-oxo-indoline-5-carbonitrile], in assay [1], the Ki is 1 to 10 nM. The “Ki(h-V1a)/ Ki(h-V1b)” value in assay [2] is on record as “+++ (>75)”.
On the same counts, the results for `CCOc1ncccc1C1(N2CC3(CN(C4CCN(C)CC4)C3)C2)C(=O)N(S(=O)(=O)c2ccc(OC)cn2)c2ccc(C#N)cc21` (racemic) [Example 9, (±)-3-(2-ethoxy-3-pyridyl)-1-[(5-methoxy-2-pyridyl)sulfonyl]-3-[2-(1-methyl-4-piperidyl)-2,6-diazaspiro[3.3]heptan-6-yl]-2-oxo-indoline-5-carbonitrile] are 1 to 10 nM and “+++ (>75)”.
In assay [1], `CCOc1ccc(OC)cc1C1(N2CC3(CN(C4CCN(C5COC5)CC4)C3)C2)C(=O)N(S(=O)(=O)c2ccc(OC)cn2)c2ccc(C#N)cc21` (racemic) [Example 10, (±)-3-(2-ethoxy-5-methoxy-phenyl)-1-[(5-methoxy-2-pyridyl)sulfonyl]-3-[2-[1-(oxetan-3-yl)-4-piperidyl]-2,6-diazaspiro[3.3]heptan-6-yl]-2-oxo-indoline-5-carbonitrile] gave a Ki of 1 to 10 nM. For the same compound, the “Ki(h-V1a)/ Ki(h-V1b)” value in assay [2] is listed as “+++ (>75)”.
In assay [1], `CCOc1ncccc1C1(N2CC3(CN(C4CCN(C)CC4)C3)C2)C(=O)N(S(=O)(=O)c2ccc(OC)cc2)c2ccc(C#N)cc21` (racemic) [Example 12, (±)-3-(2-ethoxy-3-pyridyl)-1-(4-methoxyphenyl)sulfonyl-3-[2-(1-methyl-4-piperidyl)-2,6-diazaspiro[3.3]heptan-6-yl]-2-oxo-indoline-5-carbonitrile] gave a Ki of 10 to 100 nM.
In assay [1], `CCOc1ccc(OC)cc1C1(N2CC3(CN(C4CCN(C)CC4)C3)C2)C(=O)N(S(=O)(=O)c2ccc(C#N)cc2)c2ccc(C#N)cc21` (racemic) [Example 14, (±)-1-(4-cyanophenyl)sulfonyl-3-(2-ethoxy-5-methoxy-phenyl)-3-[2-(1-methyl-4-piperidyl)-2,6-diazaspiro[3.3]heptan-6-yl]-2-oxo-indoline-5-carbonitrile] yielded a Ki of 10 to 100 nM. In addition, the “Ki(h-V1a)/ Ki(h-V1b)” value in assay [2] is listed as “+++ (>75)”.
`CCOc1ccc(OC)cc1C1(N2CC3(CN(C4CCN(C)CC4)C3)C2)C(=O)N(S(=O)(=O)c2ccc(C)cc2)c2ccc(C#N)cc21` (racemic) [Example 15, (±)-3-(2-ethoxy-5-methoxy-phenyl)-3-[2-(1-methyl-4-piperidyl)-2,6-diazaspiro[3.3]heptan-6-yl]-2-oxo-1-(p-tolylsulfonyl)indoline-5-carbonitrile] gave a Ki in assay [1] of 10 to 100 nM. In assay [2], the “Ki(h-V1a)/ Ki(h-V1b)” value is on record as “++ (25-75)”.
On to `CCOc1ccc(OC)cc1C1(N2CC3(CN(C4CCN(C)CC4)C3)C2)C(=O)N(S(=O)(=O)c2ccc(F)cc2)c2ccc(C#N)cc21` (racemic) [Example 16, (±)-3-(2-ethoxy-5-methoxy-phenyl)-1-(4-fluorophenyl)sulfonyl-3-[2-(1-methyl-4-piperidyl)-2,6-diazaspiro[3.3]heptan-6-yl]-2-oxo-indoline-5-carbonitrile], for which the Ki in assay [1] was in the range of 10 to 100 nM. In addition, the “Ki(h-V1a)/ Ki(h-V1b)” value in assay [2] is on record as “++ (25-75)”.
`CCOc1ccc(OC)cc1C1(N2CC3(CC(N4CCN(C)CC4)C3)C2)C(=O)N(S(=O)(=O)c2ccc(OC)cn2)c2ccc(C#N)cc21` (racemic) [Example 17, (±)-3-(2-ethoxy-5-methoxy-phenyl)-1-[(5-methoxy-2-pyridyl)sulfonyl]-3-[2-(4-methylpiperazin-1-yl)-6-azaspiro[3.3]heptan-6-yl]-2-oxo-indoline-5-carbonitrile] returned an inhibitory constant (Ki) in assay [1] of less than 1 nM. Moreover, the “Ki(h-V1a)/ Ki(h-V1b)” value in assay [2] was “+++ (>75)”.
With `COc1ccc(S(=O)(=O)N2C(=O)C(c3ccccc3OC)(N3CC4(CN(C5CCN(C)CC5)C4)C3)c3cc(C#N)ccc32)nc1` (racemic) [Example 18, (±)3-(2-methoxyphenyl)-1-[(5-methoxy-2-pyridyl)sulfonyl]-3-[2-(1-methyl-4-piperidyl)-2,6-diazaspiro[3.3]heptan-6-yl]-2-oxo-indoline-5-carbonitrile], the Ki in assay [1] was less than 1 nM. Besides, the “Ki(h-V1a)/ Ki(h-V1b)” value in assay [2] is reported as “+++ (>75)”.
`CCOc1ccc(OC)cc1C1(N2CC3(CN(C4CCN(C(C)C)CC4)C3)C2)C(=O)N(S(=O)(=O)c2ccc(OC)cn2)c2ccc(C#N)cc21` (racemic) [Example 19, (±)-3-(2-ethoxy-5-methoxy-phenyl)-3-[2-(1-isopropyl-4-piperidyl)-2,6-diazaspiro[3.3]heptan-6-yl]-1-[(5-methoxy-2-pyridyl)sulfonyl]-2-oxo-indoline-5-carbonitrile] returned a Ki in assay [1] of less than 1 nM. The “Ki(h-V1a)/ Ki(h-V1b)” value in assay [2] is listed as “+++ (>75)”.
For the compound `CCOc1ccc(OC)cc1C1(N2CC3(CN(C4CCN(CCOC)CC4)C3)C2)C(=O)N(S(=O)(=O)c2ccc(OC)cn2)c2ccc(C#N)cc21` (racemic) [Example 20, (±)-3-(2-ethoxy-5-methoxy-phenyl)-3-[2-[1-(2-methoxyethyl)-4-piperidyl]-2,6-diazaspiro[3.3]heptan-6-yl]-1-[(5-methoxy-2-pyridyl)sulfonyl]-2-oxo-indoline-5-carbonitrile], the Ki in assay [1] was 1 to 10 nM. Besides, the “Ki(h-V1a)/ Ki(h-V1b)” value in assay [2] is “+++ (>75)”.
In assay [1], `CCOc1ccc(OC)cc1C1(N2CC3(CN(C4CCN(C)CC4)C3)C2)C(=O)N(S(=O)(=O)c2ccc(OC)cn2)c2cc(C#N)ccc21` (racemic) [Example 29, (±)-3-(2-ethoxy-5-methoxy-phenyl)-1-[(5-methoxy-2-pyridyl)sulfonyl]-3-[2-(1-methyl-4-piperidyl)-2,6-diazaspiro[3.3]heptan-6-yl]-2-oxo-indoline-6-carbonitrile] registered a Ki of 1 to 10 nM.
In assay [1], `CCOc1ccc(OC)cc1C1(N2CC3(CN(C4CCN(C)CC4)C3)C2)C(=O)N(S(=O)(=O)c2ccc(OC)cc2)c2ccc(C#N)cc21` (single isomer, unassigned; (-)) [Example 6, (−)-3-(2-ethoxy-5-methoxy-phenyl)-1-(4-methoxyphenyl)sulfonyl-3-[2-(1-methyl-4-piperidyl)-2,6-diazaspiro[3.3]heptan-6-yl]-2-oxo-indoline-5-carbonitrile] registered a Ki of 10 to 100 nM.
On to `CCOc1ccc(OC)cc1[C@]1(N2CC3(CN(C4CCN(C)CC4)C3)C2)C(=O)N(S(=O)(=O)c2cccc(OC)n2)c2ccc(C#N)cc21` [Example 32, (3S)-3-(2-ethoxy-5-methoxy-phenyl)-1-[(6-methoxy-2-pyridyl)sulfonyl]-3-[2-(1-methyl-4-piperidyl)-2,6-diazaspiro[3.3]heptan-6-yl]-2-oxo-indoline-5-carbonitrile], for which, in assay [1], the Ki fell in the range of 10 to 100 nM.
